Consider one molecule from US6172042A, “Synthetic peptides that inhibit IL-6 activity” (Yeda Research and Development Co. LTD, priority 1995, dated 2001).

Where a SMILES comes first, the peptide text is derived from it.

The test has as its system B9 plasmacytoma-derived cells. The following applies: 250 μg/ml.

Experimental: To assay the biological activity of the peptides as inhibitors of IL-6 action against growth of plasmacytoma cells, a hybridoma cell line B9 whose growth is IL-6 dependent (Helle et al, 1988) was used. The B9 cells were cultured in suspension in growth medium RPMI 1640 (Biolabs Ltd., Israel) with 10% heat-inactivated fetal calf serum and 4 U/ml IL-6.
Prior to assay, the B9 cells were washed and incubated for 5 hours in growth medium but without IL-6. The cells were centrifuged, resuspended in growth medium with 2.5 units/ml (i.e. 7.5 IU/ml) of IL-6 and seeded in a 96-well microplate (Nunc, Denmark) at 50,000 cells in a final volume of 0.2 ml per well. A 25 µl of water solution with appropriate peptide concentration was included in the final volume of each well, i.e. the peptides at concentrations ranging from 62.5 μg/ml to 250 μg/ml (as well as a 0 μg/ml control) were added together with the IL-6. […] The optical absorbance at 530 nm wavelength of each well was measured as specified by the manufacturer. The absorbance is directly proportional to the number of living cells in the well as verified in calibration experiments from 50,000 to 10^6 B9 cells (0.25 OD530 corresponding to 5×10^5 B9 cells under the present experimental conditions). The results were expressed as the difference between final cell density with IL-6 and without IL-6. […]

Take `CSCC[C@H](NC(=O)[C@H](Cc1c[nH]c2ccccc12)NC(=O)[C@@H](NC(=O)[C@@H](NC(=O)[C@H](Cc1ccccc1)NC(=O)[C@@H](NC(=O)[C@H](CCCCN)NC(=O)[C@H](CO)NC(=O)[C@H](CCCNC(=N)N)NC(=O)[C@H](CCC(=O)O)NC(=O)[C@H](C)NC(=O)[C@H](CCCNC(=N)N)NC(=O)[C@H](Cc1ccc(O)cc1)NC(=O)[C@H](CCCNC(=N)N)NC(=O)[C@@H](N)CC(C)C)[C@@H](C)O)[C@@H](C)O)[C@@H](C)O)C(=O)N[C@H](C(=O)O)C(C)C` [peptide 1063, LRYRAERSKTFTTWMV] (H-LRYRAERSKTFTTWMV-OH): the “growth inhibition of B9 cells” value worked out at 99%.
